The test system of this assay is human telomeric G-quadruplex (139-nt GQ strand) in DNA origami nanobowl (DNA, G4) TTACCTTTCCCCTCTGGCAAAACTATTCCGGTAAACTTAGGGTTAGGGTTAGGGTTAGGGTTATTTTTTTTATTTCTTCAGGCTTAACCATGCATTCCGATTGCAGCTTGCATCCATTGCATCGCTTGAATTGTCCAGC
Briefly: optical tweezers mechanical unfolding, force populations. To be noted: 100 mM KCl, 10 mM MgCl2; 20 mM Tris pH 7.8, 1 mM EDTA; free PDS 20-500 nM; bound populations outside and inside nanobowl rise.

Molecules are shown by their SMILES.

As to `NCCOc1cc(C(=O)Nc2cc(OCCN)c3ccccc3n2)nc(C(=O)Nc2cc(OCCN)c3ccccc3n2)c1`, the binding entry was “yes”.

Values taken from PMC8789071 (2022).
